Structures can show the parent of a compound that is named as a salt. Where two headings read alike, the source gives them in different places.
What was measured:
5HT6 = target: T1, 5HT6 (Homo sapiens, UniProt P50406); test: radioligand binding to serotonin receptor, cell membrane sample, Ki by Cheng-Prusoff
T1 construct: expressed in transfected cells; host or cells: HEK293
Procedure: (§1) A mixture of radioactive ligands and some cardinal numbers of test compounds was incubated with a sample of cell membrane, which was prepared from brain of rats or HEK293 cells, which expressed the receptor, under the following conditions. Then, the sample was filtered by suction on a Whatman GF/C. Radioactivity on the filter was encountered by the use of a liquid scintillation counter. 50% Inhibitory concentration values (IC50 values) of each selective binding were calculated for test compounds and the Ki value was obtained by applying an equation of Cheng-Prusoff [Biochem. Pharmacol. 22 (1973) 3099-3108] Ki=IC50/(1+[L]/Kd).

5HT1A = target: T2, 5HT1A (Rattus norvegicus, UniProt P19327); test: as above
T2 construct: prepared from brain of rats or HEK293 cells, which expressed the receptor; from tissue; host or cells: rat brain membranes
T2 sequence (P19327 1-422): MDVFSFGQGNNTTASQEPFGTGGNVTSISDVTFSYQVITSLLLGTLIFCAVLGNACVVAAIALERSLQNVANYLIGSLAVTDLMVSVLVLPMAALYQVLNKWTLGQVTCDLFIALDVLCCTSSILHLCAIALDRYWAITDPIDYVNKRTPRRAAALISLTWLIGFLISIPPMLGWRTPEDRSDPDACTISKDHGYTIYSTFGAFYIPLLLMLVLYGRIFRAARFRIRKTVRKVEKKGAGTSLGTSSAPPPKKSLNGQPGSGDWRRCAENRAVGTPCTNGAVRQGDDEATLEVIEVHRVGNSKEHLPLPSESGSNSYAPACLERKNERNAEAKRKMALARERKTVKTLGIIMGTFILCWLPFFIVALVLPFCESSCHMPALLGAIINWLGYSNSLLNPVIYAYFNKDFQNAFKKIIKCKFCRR
Procedure: as §1

[1] = rat 5-HT6 (HEK293), 8 nM [3H] 5HT 25° C. 120 min or 4 nM [3H] LSD 37° C. 60 min, read-out: Ki value (nM) ±SE 5-HT6
[2] = rat hippocampus membranes, 1 nM [3H] 8-OH-DPAT, 25° C. 30 min, read-out: Ki value (nM) ±SE 5-HT1A

T1 sequence (P50406 whole entry, species assumed): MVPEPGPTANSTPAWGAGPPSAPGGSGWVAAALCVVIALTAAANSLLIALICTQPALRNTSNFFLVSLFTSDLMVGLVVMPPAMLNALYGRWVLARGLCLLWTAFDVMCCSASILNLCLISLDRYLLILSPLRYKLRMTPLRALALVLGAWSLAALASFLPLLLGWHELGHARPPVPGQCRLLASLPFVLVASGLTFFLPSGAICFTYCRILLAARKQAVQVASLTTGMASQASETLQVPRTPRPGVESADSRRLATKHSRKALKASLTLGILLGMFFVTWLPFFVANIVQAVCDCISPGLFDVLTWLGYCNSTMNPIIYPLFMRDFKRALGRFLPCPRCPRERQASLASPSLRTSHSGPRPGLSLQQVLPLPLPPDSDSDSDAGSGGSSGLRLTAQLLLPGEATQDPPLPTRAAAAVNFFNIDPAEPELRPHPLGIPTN

Row | Compound | melting point | Ki (5HT6) [nM] | other results
1 | CN(C)C1COc2cccc3c2c(cn3S(=O)(=O)c2cccc(Br)c2)C1 (stereo not shown) (as salt: oxalate) [Compound 20-12] | 168 to 171 °C (dec.) |  | 
2 | CN(C)C1COc2cccc3c2c(cn3S(=O)(=O)c2ccc(F)cc2F)C1 (stereo not shown) [Compound 20-22] |  |  | Ki (5HT6; [1]): 26 nM
3 | OC1COc2cccc3[nH]cc(c23)C1 (stereo not shown) | 169 to 170 °C |  | 
4 | C=CCNC1COc2cccc3[nH]cc(c23)C1 (stereo not shown) [Compound 19-7] | 112 to 113 °C |  | Ki (5HT1A): 19 nM
5 | CN(C)C1COc2cccc3c2c(cn3S(=O)(=O)c2ccc(F)cc2F)C1 (stereo not shown) (as salt: oxalate) [Compound 20-22] | 163 to 164 °C (dec.) |  | 
6 | COc1ccc(OC)c(S(=O)(=O)n2cc3c4c(cccc42)OCC(N(C)C)C3)c1 (stereo not shown) [Compound 20-23] |  |  | Ki (5HT6; [1]): 9.9 nM
7 | COc1ccc(S(=O)(=O)n2cc3c4c(cccc42)OCC(N(C)C)C3)cc1OC (stereo not shown) (as salt: oxalate) [Compound 20-15] | 123 to 126 °C (dec.) |  | 
8 | CN(C)C1COc2cccc3c2c(cn3S(=O)(=O)c2ccccc2Br)C1 (stereo not shown) [Compound 20-13] |  | 3.9 | 
9 | CN(C)C1COc2cccc3[nH]c(Br)c(c23)C1 (stereo not shown) [Compound 21, (1-Bromo-2,7,8,9-tetrahydro-6-oxa-2-azabenzo[cd]azulen-8-yl)dimethylamine] | 170 to 172 °C |  | Ki (5HT1A; [2]): 14 nM
10 | CN(C)C1COc2c(C=NO)ccc3[nH]cc(c23)C1 (stereo not shown) [Compound 47, 8-Dimethylamino-2,7,8,9-tetrahydro-6-oxa-2-azabenzo[cd]-azulene-5-carbaldehyde Oxime] |  | 78 | 
11 | COc1ccc(S(=O)(=O)n2cc3c4c(cccc42)OCC(N(C)C)C3)cc1OC (stereo not shown) [Compound 20-15] |  |  | Ki (5HT6; [1]): 29 nM
12 | CN(C)C1COc2cccc3c2c(cn3S(=O)(=O)c2ccc(F)cc2)C1 (stereo not shown) (as salt: oxalate) [Compound 20-19] | 143 to 144 °C (dec.) |  | 
13 | O=S(=O)(c1ccccc1)n1cc2c3c(cccc31)OCC(N1CCCC1)C2 (stereo not shown) [Compound 36-1, 2-Benzenesulfonyl-8-pyrrolidin-1-yl-2,7,8,9-tetrahydro-6-oxa-2-azabenzo[cd]azulene] |  | 65 | Ki (5HT1A; [2]): 29 nM
14 | COc1ccc(S(=O)(=O)n2cc3c4c(cccc42)OCC(N(C)C)C3)cc1 (stereo not shown) (as salt: oxalate) [Compound 20-14] | 140 to 142 °C (dec.) |  | 
15 | COc1ccc(OC)c(S(=O)(=O)n2cc3c4c(cccc42)OCC(N(C)C)C3)c1 (stereo not shown) (as salt: oxalate) [Compound 20-23] | 147 to 150 °C (dec.) |  | 
16 | CN(C)C1COc2c(Br)ccc3c2c(cn3S(=O)(=O)c2ccccc2)C1 (stereo not shown) [Compound 20-18] | 89 to 90 °C | 22 | 
17 | N[C@@H]1COc2cccc3[nH]cc(c23)C1 | 202 to 203 °C |  | 
18 | CNC1COc2cccc3c2c(cn3S(=O)(=O)c2ccccc2)C1 (stereo not shown) (as salt: oxalate) [Compound 36-2] | 208 to 213 °C (dec.) |  | 
19 | CN(C)C1CC(=O)c2cccc3[nH]cc(c23)C1 (stereo not shown) [Compound 19-1, Dimethyl-(2,7,8,9-tetrahydro-6-oxo-2-azabenzo[cd]azulen-8-yl)amine] |  |  | Ki (5HT1A; [2]): 81 nM

Row | Compound | melting point | Ki (5HT6) [nM] | other results
20 | CN(C)C1COc2cccc3c2c(cn3S(=O)(=O)c2ccc(Br)cc2)C1 (stereo not shown) [Compound 20-11] |  | 5.7 | 
21 | CN(C)C1COc2cccc3c2c(cn3S(=O)(=O)c2ccc(F)cc2)C1 (stereo not shown) [Compound 20-19] |  | 12 | 
22 | CN(C)C1COc2cccc3c2c(cn3S(=O)(=O)c2ccc(-c3ccon3)s2)C1 (stereo not shown) [Compound 20-25] |  |  | Ki (5HT6; [1]): 36 nM
23 | CN(C)C1COc2cccc3c2c(cn3S(=O)(=O)c2cccc3ccccc23)C1 (stereo not shown) [Compound 20-5] | 148 to 149 °C | 0.49 | 
24 | CN(C)C1COc2cccc3c2c(cn3S(=O)(=O)c2ccc(Cl)s2)C1 (stereo not shown) (as salt: oxalate) [Compound 20-21] | 154 to 156 °C (dec.) |  | 
25 | NC1COc2cccc3[nH]cc(c23)C1 (stereo not shown) [Compound 8-1, 2,7,8,9-Tetrahydro-6-oxa-2-azabenzo[c,d]azulen-8-ylamine] | 172 to 173 °C |  | Ki (5HT1A; [2]): 36 nM
26 | CN(C)C1COc2cccc3c2c(cn3S(=O)(=O)c2ccc(-c3ccon3)s2)C1 (stereo not shown) (as salt: oxalate) [Compound 20-25] | 113 to 115 °C (dec.) |  | 
27 | CCCN(CCC)C1COc2cccc3[nH]cc(c23)C1 (stereo not shown) [Compound 19-5] | 60 to 61 °C |  | Ki (5HT1A): 10 nM
28 | CN(C)C1COc2cccc3c2c(cn3S(=O)(=O)c2ccc(C(F)(F)F)cc2)C1 (stereo not shown) [Compound 20-10] |  | 45 | Ki (5HT1A): 95 nM
29 | CNC1COc2cccc3[nH]cc(c23)C1 (stereo not shown) [Compound 19-2] |  | 97 | Ki (5HT1A): 23 nM
30 | CN(C)C1COc2cccc3c2c(cn3S(=O)(=O)c2cc(F)c(Br)cc2F)C1 (stereo not shown) (as salt: oxalate) [Compound 20-20] | 128 to 131 °C (dec.) |  | 
31 | CN(C)C1COc2cccc3c2c(cn3S(=O)(=O)c2ccc(Cl)cc2)C1 (stereo not shown) [Compound 20-6] |  |  | Ki (5HT6; [1]): 2.7 nM
32 | COc1ccc(S(=O)(=O)n2cc3c4c(cccc42)OCC(N(C)C)C3)cc1 (stereo not shown) [Compound 20-14] |  | 22 | 
33 | CCc1ccc2[nH]cc3c2c1OCC(N(C)C)C3 (stereo not shown) [Compound 41, (5-Ethyl-2,7,8,9-tetrahydro-6-oxa-2-azabenzo[cd]azulen-8-yl)dimethylamine] |  |  | Ki (5HT1A; [2]): 57 nM
34 | CN(C)C1CC(=O)c2cccc3c2c(cn3S(=O)(=O)c2ccccc2)C1 (stereo not shown) [Compound 20-1, (2-Benzenesulfonyl-2,7,8,9-tetrahydro-6-oxo-2-azabenzo[cd]azulen-8-yl)dimethylamine oxalate] |  | 1.7 | 
35 | CN(C)C1COc2cccc3c2c(cn3S(=O)(=O)c2ccc(Br)cc2)C1 (stereo not shown) (as salt: oxalate) [Compound 20-11] | 147 to 150 °C (dec.) |  | 
36 | CN(C)C1COc2cccc3c2c(cn3S(=O)(=O)c2cccs2)C1 (stereo not shown) [Compound 20-9] |  | 78 | Ki (5HT1A): 86 nM
37 | CN(C)C1COc2c(C=O)ccc3[nH]cc(c23)C1 (stereo not shown) [Compound 46-1, 8-Dimethylamino-2,7,8,9-tetrahydro-6-oxa-2-azabenzo[cd]-azulene-5-carbaldehyde] |  | 28 | 
38 | CN(C)C1COc2cccc3c2c(cn3S(=O)(=O)c2cccs2)C1 (stereo not shown) (as salt: oxalate) [Compound 20-9] | 142 to 144 °C (dec.) |  | 

Row | Compound | melting point | Ki (5HT6) [nM] | other results
39 | c1cc2c3c(c[nH]c3c1)CC(NC1CC1)CO2 (stereo not shown) [Compound 19-19] | 130 to 131 °C |  | Ki (5HT1A): 3.8 nM
40 | CSc1ccc2[nH]cc3c2c1OCC(N(C)C)C3 (stereo not shown) [Compound 46-3] | 112 to 113 °C |  | Ki (5HT1A): 18 nM
41 | CNC1COc2cccc3c2c(cn3S(=O)(=O)c2ccccc2)C1 (stereo not shown) [Compound 36-2] |  | 8.5 | 
42 | COc1cccc(S(=O)(=O)n2cc3c4c(cccc42)OCC(N(C)C)C3)c1 (stereo not shown) [Compound 20-24] | 103 to 104 °C | 3.2 | 
43 | CN(C)C1COc2c(C#N)ccc3[nH]cc(c23)C1 (stereo not shown) [Compound 48, 8-Dimethylamino-2,7,8,9-tetrahydro-6-oxa-2-azabenzo[cd]-azulene-5-carbonitrile] |  | 1 | 
44 | c1cc2c3c(c[nH]c3c1)CC1(CO2)OCCO1 | 200 to 202 °C |  | 
45 | CN(C)C1COc2cccc3c2c(cn3S(=O)(=O)c2ccccc2Br)C1 (stereo not shown) (as salt: oxalate) [Compound 20-13] | 173 to 176 °C (dec.) |  | 
46 | CN(C)C1COc2cccc3c2c(cn3S(=O)(=O)c2ccc(Cl)cc2)C1 (stereo not shown) (as salt: oxalate) [Compound 20-6] | 114 to 118 °C (dec.) |  | 
47 | CN(C)C1COc2cccc3c2c(cn3S(=O)(=O)c2cc(F)c(Br)cc2F)C1 (stereo not shown) [Compound 20-20] |  |  | Ki (5HT6; [1]): 11 nM
48 | CN(C)C1COc2cccc3c2c(cn3S(=O)(=O)c2ccc(Cl)s2)C1 (stereo not shown) [Compound 20-21] |  |  | Ki (5HT6; [1]): 2.7 nM
49 | CNC1COc2cccc3[nH]cc(c23)C1 (stereo not shown) (as salt: oxalate) [Compound 19-2] | 112 to 116 °C |  | 
50 | CN(C)C1COc2cccc3c2c(cn3S(=O)(=O)c2cccc(Br)c2)C1 (stereo not shown) [Compound 20-12] |  | 2.7 | 
51 | CN(C)C1COc2cccc3c2c(cn3S(=O)(=O)c2cc(Cl)ccc2Cl)C1 (stereo not shown) [Compound 20-17] |  | 29 | 
52 | CN(C)C1COc2cccc3c2c(cn3S(=O)(=O)/C=C/c2ccccc2)C1 (stereo not shown) [Compound 20-16] |  | 22 | 
53 | CN(C)C1COc2cccc3c2c(cn3S(=O)(=O)/C=C/c2ccccc2)C1 (stereo not shown) (as salt: oxalate) [Compound 20-16] | 169 to 171 °C (dec.) |  | 
54 | CN(C)C1COc2cccc3c2c(cn3S(=O)(=O)c2cc(Cl)ccc2Cl)C1 (stereo not shown) (as salt: oxalate) [Compound 20-17] | 161 to 163 °C (dec.) |  | 
55 | c1cc2c3c(c[nH]c3c1)CC(N1CCCC1)CO2 (stereo not shown) [Compound 19-10] | 137 to 139 °C |  | Ki (5HT1A): 2.5 nM
56 | CN(C)C1COc2cccc3c2c(cn3S(=O)(=O)c2ccc(C(F)(F)F)cc2)C1 (stereo not shown) (as salt: oxalate) [Compound 20-10] | 119 to 122 °C (dec.) |  | 
